From article PMC10023679, “Amide-to-ester substitution as a stable alternative to N-methylation for increasing membrane permeability in cyclic peptides” (Nature Communications, 2023)
Each block holds one compound with its values, some of them ahead of it. Non-standard residues stand in square brackets, D forms with d. Residues, ends and D or L forms follow the SMILES beside them. NMeF = CN[C@@H](Cc1ccccc1)C(=O)O; PhLac = O=C(O)[C@@H](O)Cc1ccccc1; Hica(2S) = CC(C)C[C@H](O)C(=O)O; NMeL = CN[C@@H](CC(C)C)C(=O)O; dHica = CC(C)C[C@@H](O)C(=O)O; dNMeL = CN[C@H](CC(C)C)C(=O)O

Key:
in vitro = in vitro ADME
[1] = Caco-2 assay (permeability across cell monolayers); type: in vitro ADME; details: Caco-2, 1 μM compounds in HBSS (pH 7.4) containing 10 mM HEPES and 1% DMSO, 3 h incubation at 37 °C, read-out: Caco-2 permeability Pa
[2] = 1,9-decadiene-water distribution coefficient; type: physicochemical; details: decadiene and aqueous buffer
[3] = Stability in simulated gastric fluid (SGF); type: in vitro ADME; details: pH 1.2, 37 °C, at 4 h
Experimental: The stability assay of peptides in SGF was conducted according to United States Pharmacopeia & National Formulary (USP 25-NF 20)[64] and the previous report[65] with some modifications as follows. SGF used in this study was prepared by dissolving pepsin (3.6 mg/mL) (Sigma, P7012, 3357 Unit/mg) in an aqueous solution of 2 mg/mL sodium chloride (NaCl) at pH 1.2. The solution was vortexed for 1 min, sonicated for 15 min, centrifuged at 20,000 × g for 10 min, and filtered before use. 57 μL of SGF was incubated at 37 °C for 15 min and 3 μL of 1 μM peptide solution in DMSO was added to the warmed […]. After 1, 2, or 4 h, 60 μL of ice-cold ultra-pure water containing 5% trifluoroacetic acid was added and 120 μL of 30% acetonitrile in ultra-pure water was added. The samples were filtered and injected into UPLC.

[4] = Stability in simulated intestinal fluid (SIF); type: in vitro ADME; details: pH 6.8, 37 °C, at 4 h
Experimental: The stability assay of peptides in SIF was conducted according to United States Pharmacopeia & National Formulary (USP 25-NF 20)[64] and the previous report[65] with some modifications as follows. SIF used in this study was prepared by dissolving pancreatin (1.25 mg/mL) (Sigma, P7545, 8 × USP specifications) in 50 mM phosphate buffer at pH 6.8. The solution was vortexed for 1 min, sonicated for 15 min, centrifuged at 20,000 × g for 10 min, and filtered before use. 57 μL of SIF was incubated at 37 °C for 15 min and 3 μL of 1 μM peptide solution in DMSO was added to the warmed […]. After 1, 2, or 4 h, 60 μL of ice-cold ultra-pure water containing 5% trifluoroacetic acid was added and 120 μL of 30% acetonitrile in ultra-pure water was added. The samples were filtered and injected into UPLC.
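Throughout, for Pe (PAMPA), CP1-Y1F-L2K series: filter plate membrane of 1% soybean lecithin in dodecane, donor and acceptor in 5% DMSO/PBS, incubated at 25 °C, peptide in both compartments measured by LC-MS.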

Papp (in vitro; PAMPA): 1 ×10⁻⁶ cm/s
Papp [1]: 0.3 ×10⁻⁶ cm/s
Compound: CC(C)C[C@@H]1NC(=O)[C@@H](CC(C)C)NC(=O)[C@H](CC(C)C)N(C)C(=O)[C@H](Cc2ccc(O)cc2)NC(=O)[C@H]2CCCN2C(=O)[C@H](CC(C)C)NC1=O [MP2] (cyclo(LL[dP]Y[NMeL][dL]))

log Ddec/w (1,9-decadiene–water distribution coefficient) [2]: –1.24 ± 0.01
Compound: CC(=O)N[C@@H](Cc1ccccc1)C(=O)N(C)[C@@H](Cc1ccccc1)C(N)=O [M1] (Ac-Phe-[NMeF]-NH2)

Papp (in vitro; PAMPA): 1.7 ×10⁻⁶ cm/s
Papp [1]: 1.2 ×10⁻⁶ cm/s
Compound: CC(C)C[C@@H]1NC(=O)[C@H](Cc2ccc(O)cc2)NC(=O)[C@H]2CCCN2C(=O)[C@H](CC(C)C)N(C)C(=O)[C@H](CC(C)C)NC(=O)[C@@H](CC(C)C)NC1=O [MP5] (cyclo(L[NMeL][dP]YL[dL]))

Papp (in vitro; PAMPA): 1.3 ×10⁻⁶ cm/s
Papp [1]: 0.2 ×10⁻⁶ cm/s
Compound: CC(C)C[C@@H]1NC(=O)[C@@H](CC(C)C)OC(=O)[C@H](CC(C)C)NC(=O)[C@H](Cc2ccc(O)cc2)NC(=O)[C@H]2CCCN2C(=O)[C@H](CC(C)C)NC1=O [DP3] (cyclo(LL[dP]YL[dHica]))

Papp (in vitro; PAMPA): 4.4 ×10⁻⁶ cm/s
Papp [1]: 2.8 ×10⁻⁶ cm/s
Compound: CC(C)C[C@@H]1NC(=O)[C@H](Cc2ccc(O)cc2)NC(=O)[C@H]2CCCN2C(=O)[C@H](CC(C)C)OC(=O)[C@H](CC(C)C)NC(=O)[C@@H](CC(C)C)NC1=O [DP5] (cyclo(L[dL]L[Hica(2S)][dP]Y))

Papp (in vitro; PAMPA): 4.2 ×10⁻⁶ cm/s
Papp [1]: 1.2 ×10⁻⁶ cm/s
Compound: CC(C)C[C@@H]1NC(=O)[C@H](Cc2ccc(O)cc2)NC(=O)[C@H]2CCCN2C(=O)[C@H](CC(C)C)NC(=O)[C@H](CC(C)C)OC(=O)[C@@H](CC(C)C)NC1=O [DP4] (cyclo(L[dL][Hica(2S)]L[dP]Y))

Papp (in vitro; PAMPA, pH 7.4): 1.2 ×10⁻⁶ cm/s
log Ddec/w (1,9-decadiene–water distribution coefficient) [2]: –1.17 ± 0.01
Compound: CC(=O)N[C@@H](Cc1ccccc1)C(=O)O[C@@H](Cc1ccccc1)C(N)=O [D1]

Papp (in vitro; PAMPA): 2.5 ×10⁻⁶ cm/s
Papp [1]: 0.5 ×10⁻⁶ cm/s
Compound: CC(C)C[C@@H]1NC(=O)[C@H](Cc2ccc(O)cc2)NC(=O)[C@H]2CCCN2C(=O)[C@H](CC(C)C)NC(=O)[C@H](CC(C)C)N(C)C(=O)[C@@H](CC(C)C)NC1=O [MP4] (cyclo(L[dL][NMeL]L[dP]Y))

Papp (in vitro; PAMPA, pH 7.4): 0.2 ×10⁻⁶ cm/s
log Ddec/w (1,9-decadiene–water distribution coefficient) [2]: –1.62 ± 0.02
Compound: CC(=O)N[C@@H](CC(C)C)C(=O)N(C)[C@@H](Cc1ccccc1)C(N)=O [M2] (Ac-Leu-[NMeF]-NH2)

Papp at 16 h, 2 μM (in vitro; PAMPA): 0.6 ×10⁻⁶ cm/s
Papp at 3 h, 1 μM ([1]; human): 0.2 ×10⁻⁶ cm/s
Compound: CC(C)C[C@@H]1NC(=O)[C@@H](CC(C)C)N(C)C(=O)[C@H](CC(C)C)NC(=O)[C@H](Cc2ccc(O)cc2)NC(=O)[C@H]2CCCN2C(=O)[C@H](CC(C)C)NC1=O [MP3] (cyclo(LL[dP]YL[dNMeL]))

Papp (in vitro; PAMPA, pH 7.4): 0.1 ×10⁻⁶ cm/s
log Ddec/w (1,9-decadiene–water distribution coefficient) [2]: –2.13 ± 0.02
Compound: CC(=O)N[C@@H](CC(C)C)C(=O)N(C)[C@@H](CC(C)C)C(N)=O [M3]

log Ddec/w (1,9-decadiene–water distribution coefficient) [2]: –2.75 ± 0.01
Compound: CC(=O)N[C@@H](Cc1ccccc1)C(=O)N[C@@H](Cc1ccccc1)C(N)=O [P1] (Ac-Phe-Phe-NH2)

Second part, the compound before the results:

Compound: CC(C)C[C@@H]1NC(=O)[C@@H](CC(C)C)NC(=O)[C@H](CCCCN)NC(=O)[C@H](Cc2ccccc2)N(C)C(=O)[C@H]2CCCN2C(=O)[C@H](CC(C)C)NC1=O [CP1-Y1F-L2K NMe] (cyclo(K[dL]LL[dP][NMeF]))
Papp (in vitro; PAMPA): < 0.00075 ×10⁻⁶ cm/s

Compound: CC(C)C[C@@H]1C(=O)N[C@H](C(C)C)C(=O)N[C@H](C)C(=O)N2CCC[C@@H]2C(=O)N(C)[C@H](CC(C)C)C(=O)N[C@H](C(C)C)C(=O)N[C@H](C)C(=O)N2CCC[C@@H]2C(=O)N1C [D8.31, reference compound] (cyclo([dA][dP][dNMeL][dV][dA][dP][dNMeL][dV]))
Papp at 16 h, 3 μM (in vitro; PAMPA): 0.2 ×10⁻⁶ cm/s

Compound: CC(C)C[C@@H]1C(=O)N[C@H](C(C)C)C(=O)N[C@H](C)C(=O)N2CCC[C@@H]2C(=O)O[C@H](CC(C)C)C(=O)N[C@H](C(C)C)C(=O)N[C@H](C)C(=O)N2CCC[C@@H]2C(=O)N1C (cyclo([dA][dP][dNMeL][dV][dA][dP][dHica][dV]))
Papp at 16 h, 3 μM (in vitro; PAMPA): 0.03 ×10⁻⁶ cm/s

Compound: CC(C)C[C@@H]1NC(=O)[C@H]2CCCN2C(=O)[C@H](CC(C)C)N(C)C(=O)[C@@H](C(C)C)NC(=O)[C@H](CC(C)C)NC(=O)[C@H]2CCCN2C(=O)[C@H](CC(C)C)N(C)C(=O)[C@@H](C(C)C)NC1=O [D8.21, reference compound] (cyclo(L[dV][NMeL][dP]L[dV][NMeL][dP]))
Papp at 16 h, 3 μM (in vitro; PAMPA): 8.2 ×10⁻⁶ cm/s

Compound: CC(C)C[C@@H]1NC(=O)[C@@H](CC(C)C)NC(=O)[C@H](CO)NC(=O)[C@H](Cc2ccccc2)NC(=O)[C@H]2CCCN2C(=O)[C@H](CC(C)C)NC1=O [CP1-Y1F-L2S] (cyclo(FS[dL]LL[dP]))
Papp (in vitro; PAMPA): 0.3 ×10⁻⁶ cm/s

Compound: CC(C)C[C@@H]1NC(=O)[C@@H](CC(C)C)NC(=O)[C@H](CO)NC(=O)[C@H](Cc2ccccc2)OC(=O)[C@H]2CCCN2C(=O)[C@H](CC(C)C)NC1=O [CP1-Y1F-L2S O] (cyclo(LL[dP][PhLac]S[dL]))
Papp (in vitro; PAMPA): 4.1 ×10⁻⁶ cm/s

Compound: CC(C)C[C@@H]1NC(=O)[C@H](CC(C)C)N(C)C(=O)[C@@H](C(C)C)NC(=O)[C@H](C)NC(=O)[C@H](C)OC(=O)[C@H]2CCCN2C(=O)[C@@H](CC(C)C)NC(=O)[C@@H]2CCCN2C(=O)[C@H](CC(C)C)NC1=O (relative stereo)
Papp at 16 h, 3 μM (in vitro; PAMPA): 1.1 ×10⁻⁶ cm/s

Compound: C[C@H](N)C(=O)NCC(=O)N[C@H]1CSSC[C@@H](C(=O)O)NC(=O)[C@H](CO)NC(=O)[C@H]([C@@H](C)O)NC(=O)[C@H](Cc2ccccc2)NC(=O)[C@H]([C@@H](C)O)NC(=O)[C@H](CCCCN)NC(=O)[C@H](Cc2c[nH]c3ccccc23)NC(=O)[C@H](Cc2ccccc2)NC(=O)[C@H](Cc2ccccc2)NC(=O)[C@H](CC(N)=O)NC(=O)[C@H](CCCCN)NC1=O [somatostatin, reference compound]
Fraction degraded in SGF ([3]; SGF-containing pepsin): more than 90%
metabolised at 4 h, 0.05 μM ([3]; simulated gastric fluid (SGF) containing pepsin, read-out: Fraction degraded in SGF): 98%

Compound: CC(C)C[C@@H]1NC(=O)[C@H]2CCCN2C(=O)[C@H](CC(C)C)NC(=O)[C@@H](C(C)C)NC(=O)[C@H](CC(C)C)NC(=O)[C@H]2CCCN2C(=O)[C@H](CC(C)C)N(C)C(=O)[C@@H](C(C)C)NC1=O [D8.21-amide] (cyclo(L[dP]L[dV][NMeL][dP]L[dV]))
Papp at 16 h, 3 μM (in vitro; PAMPA): 1.6 ×10⁻⁶ cm/s

Compound: CC(C)C[C@@H]1NC(=O)[C@@H](CC(C)C)NC(=O)[C@H](CCCCN)NC(=O)[C@H](Cc2ccccc2)OC(=O)[C@H]2CCCN2C(=O)[C@H](CC(C)C)NC1=O [CP1-Y1F-L2K O] (cyclo(K[dL]LL[dP][PhLac]))
Pe (PAMPA), CP1-Y1F-L2K series (in vitro): 4.9 ×10⁻⁶ cm/s
Papp (in vitro; PAMPA): 0.0049 ×10⁻⁶ cm/s

Compound: CC[C@H](C)[C@@H]1NC(=O)[C@H](Cc2ccc(O)cc2)NC(=O)[C@@H](N)CSSC[C@@H](C(=O)N2CCC[C@H]2C(=O)N[C@@H](CC(C)C)C(=O)NCC(N)=O)NC(=O)[C@H](CC(N)=O)NC(=O)[C@H](CCC(N)=O)NC1=O [oxytocin, reference compound]
Fraction degraded in SIF ([4]; SIF-containing pancreatin): more than 90%
metabolised at 4 h, 0.05 μM ([4]; simulated intestinal fluid (SIF) containing pancreatin, read-out: Fraction degraded in SIF): 94%

Compound: CC(C)C[C@@H]1NC(=O)[C@H](CC(C)C)N(C)C(=O)[C@@H](C(C)C)NC(=O)[C@H](C)NC(=O)[C@H](C)NC(=O)[C@H]2CCCN2C(=O)[C@@H](CC(C)C)NC(=O)[C@@H]2CCCN2C(=O)[C@H](CC(C)C)NC1=O (relative stereo)
Papp at 16 h, 3 μM (in vitro; PAMPA): 0.1 ×10⁻⁶ cm/s

Compound: CC(C)C[C@@H]1NC(=O)[C@@H](CC(C)C)NC(=O)[C@H](CO)NC(=O)[C@H](Cc2ccccc2)N(C)C(=O)[C@H]2CCCN2C(=O)[C@H](CC(C)C)NC1=O [CP1-Y1F-L2S NMe] (cyclo(LL[dP][NMeF]S[dL]))
Papp (in vitro; PAMPA): 0.5 ×10⁻⁶ cm/s

Compound: CC(C)C[C@@H]1C(=O)N[C@H](C(C)C)C(=O)N[C@H](C)C(=O)N2CCC[C@@H]2C(=O)N[C@H](CC(C)C)C(=O)N[C@H](C(C)C)C(=O)N[C@H](C)C(=O)N2CCC[C@@H]2C(=O)N1C (cyclo([dA][dP][dL][dV][dA][dP][dNMeL][dV]))
Papp at 16 h, 3 μM (in vitro; PAMPA): 0.01 ×10⁻⁶ cm/s

Compound: CC(C)C[C@@H]1NC(=O)[C@H]2CCCN2C(=O)[C@H](CC(C)C)OC(=O)[C@@H](C(C)C)NC(=O)[C@H](CC(C)C)NC(=O)[C@H]2CCCN2C(=O)[C@H](CC(C)C)N(C)C(=O)[C@@H](C(C)C)NC1=O [D8.21-ester] (cyclo(L[dV][NMeL][dP]L[dV][Hica(2S)][dP]))
Papp at 16 h, 3 μM (in vitro; PAMPA): 5.8 ×10⁻⁶ cm/s

Compound: CC(C)C[C@@H]1NC(=O)[C@@H](CC(C)C)NC(=O)[C@H](CCCCN)NC(=O)[C@H](Cc2ccccc2)NC(=O)[C@H]2CCCN2C(=O)[C@H](CC(C)C)NC1=O [CP1-Y1F-L2K] (cyclo(FK[dL]LL[dP]))
Papp (in vitro; PAMPA): < 0.0007 ×10⁻⁶ cm/s
